Test results: patent US20240270821A1, “GIP/GLP1/GCG TRI-RECEPTOR AGONISTS AND USES THEREOF” (priority 2023, published 2024)
Read-outs that look alike come from different tables or passages of the source. Starred links: 1 amine or outer side, 2 acyl side, 3 side chain; linkers in the order of their positions; H or OH if unused. Non-standard residues stand in square brackets, D forms with d. Residues, ends and D or L forms follow the SMILES beside them. Groups on a side chain read outwards from the residue. *: point of attachment. C18 diacid = O=C(O)CCCCCCCCCCCCCCCCC(=O)*; αMePhe(2-F) = C[C@](N)(Cc1ccccc1F)C(=O)O; γGlu = O=C(O)[C@H](CCC(=O)[*:2])N[*:1]; αMeY = C[C@](N)(Cc1ccc(O)cc1)C(=O)O; 4Pal = N[C@@H](Cc1ccncc1)C(=O)O; αMeL = CC(C)C[C@](C)(N)C(=O)O; αMeS = C[C@](N)(CO)C(=O)O; Orn = NCCC[C@H](N)C(=O)O; AEEA = NCCOCCOCC(=O)O; Aib = CC(C)(N)C(=O)O

Columns and labels:
Assay type in all cases: cell-based
hGIPR [1] = molecular target: T1, hGIPR (Homo sapiens, UniProt P48546); assay: Functional cAMP activation in the presence of 0.1% casein (no HSA); conditions: in the presence of 0.1% casein (no HSA); geometric mean; read-out: Relative cAMP EC50, hGIPR;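 note: intracellular cAMP rise after 30 min at 37 °C read by HTRF against a standard curve, scaled between buffer alone (0%) and top control ligand concentration (100%), four-parameter fit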
T1 sequence (P48546 22-466): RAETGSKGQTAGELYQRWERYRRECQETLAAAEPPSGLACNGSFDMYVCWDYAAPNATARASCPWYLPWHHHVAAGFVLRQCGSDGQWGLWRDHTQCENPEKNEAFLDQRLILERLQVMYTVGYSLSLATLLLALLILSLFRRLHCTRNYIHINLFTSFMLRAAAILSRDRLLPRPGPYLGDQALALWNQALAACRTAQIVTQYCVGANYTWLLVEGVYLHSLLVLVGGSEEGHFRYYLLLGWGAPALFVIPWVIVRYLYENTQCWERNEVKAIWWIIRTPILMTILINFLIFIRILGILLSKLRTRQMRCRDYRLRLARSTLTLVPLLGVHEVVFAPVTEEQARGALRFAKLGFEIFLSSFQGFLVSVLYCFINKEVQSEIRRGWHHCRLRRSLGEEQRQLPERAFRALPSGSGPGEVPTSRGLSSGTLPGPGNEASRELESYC

hGLP-1R [2] = molecular target: T2, hGLP-1R (Homo sapiens, UniProt P43220); assay: as above; conditions: in the presence of 0.1% casein (no HSA); geometric mean; read-out: Relative cAMP EC50, hGLP-1R;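 note: intracellular cAMP rise after 30 min at 37 °C read by HTRF, normalized between buffer only (0%) and maximal control ligand (100%), four-parameter variable-slope fit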
hGIPR [3] = molecular target: T1, hGIPR; assay: Functional cAMP activity in the presence of 1% HSA; conditions: read-out: cAMP Rel EC50, hGIPR
hGLP-1R [4] = molecular target: T2, hGLP-1R; assay: Functional cAMP activity in the presence of 1% HSA; conditions: read-out: cAMP Rel EC50, hGLP-1R
hGcgR = hGcgR (Homo sapiens, UniProt P47871); assay: Functional cAMP activation in the presence of 0.1% casein (no HSA); conditions: in the presence of 0.1% casein (no HSA); geometric mean; read-out: Relative cAMP EC50, hGcgR;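 note: intracellular cAMP rise after 30 min at 37 °C, read by HTRF against a cAMP standard curve, scaled from buffer only (0%) to maximal control ligand response (100%)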
human GcgR = human GcgR (Homo sapiens, UniProt P47871); assay: Functional cAMP activity in the presence of 1% HSA; conditions: read-out: cAMP Rel EC50, hGcgR
Chain of human GcgR (P47871 26-477): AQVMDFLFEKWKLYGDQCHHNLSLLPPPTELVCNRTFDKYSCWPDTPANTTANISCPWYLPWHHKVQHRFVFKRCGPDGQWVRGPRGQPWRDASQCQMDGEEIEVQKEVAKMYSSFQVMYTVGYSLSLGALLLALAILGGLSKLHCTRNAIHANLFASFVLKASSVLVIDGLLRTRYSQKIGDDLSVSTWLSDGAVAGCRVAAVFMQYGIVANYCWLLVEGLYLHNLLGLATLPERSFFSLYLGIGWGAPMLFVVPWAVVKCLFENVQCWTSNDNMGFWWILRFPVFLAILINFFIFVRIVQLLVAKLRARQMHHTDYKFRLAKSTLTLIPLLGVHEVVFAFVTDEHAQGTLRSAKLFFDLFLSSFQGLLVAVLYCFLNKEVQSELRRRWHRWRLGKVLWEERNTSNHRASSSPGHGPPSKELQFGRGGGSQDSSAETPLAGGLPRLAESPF

T2 sequence (P43220 24-463): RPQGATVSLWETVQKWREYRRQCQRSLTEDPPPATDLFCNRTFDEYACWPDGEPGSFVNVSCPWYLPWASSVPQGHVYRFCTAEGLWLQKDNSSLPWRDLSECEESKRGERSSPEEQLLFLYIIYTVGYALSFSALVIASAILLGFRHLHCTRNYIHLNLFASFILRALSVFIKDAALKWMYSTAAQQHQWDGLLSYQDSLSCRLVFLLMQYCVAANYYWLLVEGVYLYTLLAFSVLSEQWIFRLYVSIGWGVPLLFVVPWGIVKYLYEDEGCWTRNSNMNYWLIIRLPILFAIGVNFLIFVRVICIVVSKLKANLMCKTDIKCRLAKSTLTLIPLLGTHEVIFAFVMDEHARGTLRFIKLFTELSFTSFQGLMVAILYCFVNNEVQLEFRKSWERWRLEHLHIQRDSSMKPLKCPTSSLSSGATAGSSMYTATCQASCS
Chain of hGcgR (P47871 26-477): as the sequence (P47871 26-477) above

SMILES	EC50 (hGIPR [1]) [nM]	EC50 (hGLP-1R [2]) [nM]	EC50 (hGIPR [3]) [nM]	EC50 (hGLP-1R [4]) [nM]	EC50 (hGcgR) [nM]	EC50 (human GcgR) [nM]	EC50 (hGIPR [3]; HEK-293 clonal cells expressing hGIPR, in the presence of 1% HSA, geometric mean of relative EC50) [nM]	EC50 (hGLP-1R [4]; HEK-293 clonal cells expressing hGLP-1R, in the presence of 1% HSA, geometric mean of relative EC50) [nM]	EC50 (human GcgR; HEK-293 clonal cells expressing hGcgR, in the presence of 1% HSA, geometric mean of relative EC50) [nM]
CC[C@H](C)[C@H](NC(=O)[C@H](Cc1ccccc1)NC(=O)[C@H](CCCN)NC(=O)C(C)(C)NC(=O)[C@H](CCC(N)=O)NC(=O)[C@H](C)NC(=O)[C@H](CCCCNC(=O)CC[C@H](NC(=O)CC[C@H](NC(=O)CCCCCCCCCCCCCCCCC(=O)O)C(=O)O)C(=O)O)NC(=O)[C@H](CCCN)NC(=O)[C@H](CC(=O)O)NC(=O)[C@H](CC(C)C)NC(=O)[C@](C)(CC(C)C)NC(=O)[C@@H](NC(=O)[C@](C)(CO)NC(=O)[C@H](Cc1ccncc1)NC(=O)[C@H](CC(=O)O)NC(=O)[C@H](CO)NC(=O)[C@@H](NC(=O)[C@](C)(Cc1ccccc1F)NC(=O)[C@@H](NC(=O)CNC(=O)[C@H](CCC(N)=O)NC(=O)C(C)(C)NC(=O)[C@@H](N)Cc1ccc(O)cc1)[C@@H](C)O)[C@@H](C)O)[C@@H](C)CC)C(=O)N[C@H](CCC(=O)O)C(=O)N[C@@](C)(Cc1ccc(O)cc1)C(=O)N[C@@H](CC(C)C)C(=O)N[C@@H](CC(C)C)C(=O)N[C@@H](CCC(=O)O)C(=O)NCC(=O)NCC(=O)N1CCC[C@H]1C(=O)N[C@@H](CO)C(=O)N[C@@H](CO)C(=O)NCC(=O)N[C@@H](CCC(=O)O)C(=O)N1CCC[C@H]1C(=O)N1CCC[C@H]1C(=O)N1CCC[C@H]1C(=O)N[C@@H](CO)C(N)=O [Example 374] (H-Y[Aib]QGT[αMePhe(2-F)]TSD[4Pal][αMeS]I[αMeL]LD[Orn]K([γGlu-γGlu-C18 diacid])AQ[Aib][Orn]FI[dE][αMeY]LLEGGPSSGEPPPS-NH2)	0.0186	0.336	2.28	24.5	0.908	65.4			
CC[C@H](C)[C@H](NC(=O)[C@H](CC(C)C)NC(=O)[C@](C)(Cc1ccc(O)cc1)NC(=O)[C@@H](CCC(=O)O)NC(=O)[C@@H](NC(=O)[C@H](Cc1ccccc1)NC(=O)[C@H](CCCN)NC(=O)C(C)(C)NC(=O)[C@H](CCC(N)=O)NC(=O)[C@H](C)NC(=O)[C@H](CCCCNC(=O)CC[C@H](NC(=O)CC[C@H](NC(=O)CCCCCCCCCCCCCCCCC(=O)O)C(=O)O)C(=O)O)NC(=O)[C@H](CCCN)NC(=O)[C@H](CC(=O)O)NC(=O)[C@H](CC(C)C)NC(=O)[C@](C)(CC(C)C)NC(=O)[C@@H](NC(=O)[C@](C)(CO)NC(=O)[C@H](Cc1ccncc1)NC(=O)[C@H](CC(=O)O)NC(=O)[C@H](CO)NC(=O)[C@@H](NC(=O)[C@](C)(Cc1ccccc1F)NC(=O)[C@@H](NC(=O)CNC(=O)[C@H](CCC(N)=O)NC(=O)C(C)(C)NC(=O)[C@@H](N)Cc1ccc(O)cc1)[C@@H](C)O)[C@@H](C)O)[C@@H](C)CC)[C@@H](C)CC)C(=O)N[C@@H](CCC(=O)O)C(=O)NCC(=O)NCC(=O)N1CCC[C@H]1C(=O)N[C@@H](CO)C(=O)N[C@@H](CO)C(=O)NCC(=O)N[C@@H](CCC(=O)O)C(=O)N1CCC[C@H]1C(=O)N1CCC[C@H]1C(=O)N1CCC[C@H]1C(=O)N[C@@H](CO)C(N)=O [Example 375] (H-Y[Aib]QGT[αMePhe(2-F)]TSD[4Pal][αMeS]I[αMeL]LD[Orn]K([γGlu-γGlu-C18 diacid])AQ[Aib][Orn]FI[dE][αMeY]LIEGGPSSGEPPPS-NH2)	0.0165	0.299	1.78	18	1.32	137			
CC[C@H](C)[C@H](NC(=O)[C@H](Cc1ccccc1)NC(=O)[C@H](CCCN)NC(=O)C(C)(C)NC(=O)[C@H](CCC(N)=O)NC(=O)[C@H](C)NC(=O)[C@H](CCCCNC(=O)COCCOCCNC(=O)CC[C@H](NC(=O)CC[C@H](NC(=O)CCCCCCCCCCCCCCCCC(=O)O)C(=O)O)C(=O)O)NC(=O)[C@H](CCCN)NC(=O)[C@H](CC(=O)O)NC(=O)[C@H](CC(C)C)NC(=O)[C@](C)(CC(C)C)NC(=O)[C@@H](NC(=O)[C@](C)(CO)NC(=O)[C@H](Cc1ccncc1)NC(=O)[C@H](CC(=O)O)NC(=O)[C@H](CO)NC(=O)[C@@H](NC(=O)[C@](C)(Cc1ccccc1F)NC(=O)[C@@H](NC(=O)CNC(=O)[C@H](CCC(N)=O)NC(=O)C(C)(C)NC(=O)[C@@H](N)Cc1ccc(O)cc1)[C@@H](C)O)[C@@H](C)O)[C@@H](C)CC)C(=O)N[C@H](CCC(=O)O)C(=O)N[C@@](C)(Cc1ccc(O)cc1)C(=O)N[C@@H](CC(C)C)C(=O)N[C@@H](CC(C)C)C(=O)N[C@@H](CCC(=O)O)C(=O)NCC(=O)NCC(=O)N1CCC[C@H]1C(=O)N[C@@H](CO)C(=O)N[C@@H](CO)C(=O)NCC(=O)N[C@@H](CCC(=O)O)C(=O)N1CCC[C@H]1C(=O)N1CCC[C@H]1C(=O)N1CCC[C@H]1C(=O)N[C@@H](CO)C(N)=O [Example 376] (H-Y[Aib]QGT[αMePhe(2-F)]TSD[4Pal][αMeS]I[αMeL]LD[Orn]K([AEEA-γGlu-γGlu-C18 diacid])AQ[Aib][Orn]FI[dE][αMeY]LLEGGPSSGEPPPS-NH2)	0.0354	0.445	5.42	26	1.71	115			
CC[C@H](C)[C@H](NC(=O)[C@H](Cc1ccccc1)NC(=O)[C@H](CCCN)NC(=O)C(C)(C)NC(=O)[C@H](CCC(N)=O)NC(=O)[C@H](C)NC(=O)[C@H](CCCCNC(=O)COCCOCCNC(=O)CC[C@H](NC(=O)CCCCCCCCCCCCCCCCC(=O)O)C(=O)O)NC(=O)[C@H](CCCN)NC(=O)[C@H](CC(=O)O)NC(=O)[C@H](CC(C)C)NC(=O)[C@](C)(CC(C)C)NC(=O)[C@@H](NC(=O)[C@](C)(CO)NC(=O)[C@H](Cc1ccncc1)NC(=O)[C@H](CC(=O)O)NC(=O)[C@H](CO)NC(=O)[C@@H](NC(=O)[C@](C)(Cc1ccccc1F)NC(=O)[C@@H](NC(=O)CNC(=O)[C@H](CCC(N)=O)NC(=O)C(C)(C)NC(=O)[C@@H](N)Cc1ccc(O)cc1)[C@@H](C)O)[C@@H](C)O)[C@@H](C)CC)C(=O)N[C@H](CCC(=O)O)C(=O)N[C@@](C)(Cc1ccc(O)cc1)C(=O)N[C@@H](CC(C)C)C(=O)N[C@@H](CC(C)C)C(=O)N[C@@H](CCC(=O)O)C(=O)NCC(=O)NCC(=O)N1CCC[C@H]1C(=O)N[C@@H](CO)C(=O)N[C@@H](CO)C(=O)NCC(=O)N[C@@H](CCC(=O)O)C(=O)N1CCC[C@H]1C(=O)N1CCC[C@H]1C(=O)N1CCC[C@H]1C(=O)N[C@@H](CCC(=O)O)C(N)=O [Example 377] (H-Y[Aib]QGT[αMePhe(2-F)]TSD[4Pal][αMeS]I[αMeL]LD[Orn]K([AEEA-γGlu-C18 diacid])AQ[Aib][Orn]FI[dE][αMeY]LLEGGPSSGEPPPE-NH2)	0.0377	0.367	11.1	29.4	1.36	163			
CC[C@H](C)[C@H](NC(=O)[C@H](Cc1ccccc1)NC(=O)[C@H](CCCN)NC(=O)C(C)(C)NC(=O)[C@H](CCC(N)=O)NC(=O)[C@H](C)NC(=O)[C@H](CCCCNC(=O)COCCOCCNC(=O)CC[C@H](NC(=O)CCCCCCCCCCCCCCCCC(=O)O)C(=O)O)NC(=O)[C@H](CCCN)NC(=O)[C@H](CC(=O)O)NC(=O)[C@H](CC(C)C)NC(=O)[C@](C)(CC(C)C)NC(=O)[C@@H](NC(=O)[C@](C)(CO)NC(=O)[C@H](Cc1ccncc1)NC(=O)[C@H](CC(=O)O)NC(=O)[C@H](CO)NC(=O)[C@@H](NC(=O)[C@](C)(Cc1ccccc1F)NC(=O)[C@@H](NC(=O)CNC(=O)[C@H](CCC(N)=O)NC(=O)C(C)(C)NC(=O)[C@@H](N)Cc1ccc(O)cc1)[C@@H](C)O)[C@@H](C)O)[C@@H](C)CC)C(=O)N[C@H](CCC(=O)O)C(=O)N[C@@](C)(Cc1ccc(O)cc1)C(=O)N[C@@H](CC(C)C)C(=O)N[C@@H](CC(C)C)C(=O)N[C@@H](CCC(=O)O)C(=O)NCC(=O)NCC(=O)N1CCC[C@H]1C(=O)N[C@@H](CO)C(=O)N[C@@H](CO)C(=O)NC(C)(C)C(=O)N[C@@H](CCC(=O)O)C(=O)N1CCC[C@H]1C(=O)N1CCC[C@H]1C(=O)N1CCC[C@H]1C(=O)N[C@@H](CCC(=O)O)C(N)=O [Example 380] (H-Y[Aib]QGT[αMePhe(2-F)]TSD[4Pal][αMeS]I[αMeL]LD[Orn]K([AEEA-γGlu-C18 diacid])AQ[Aib][Orn]FI[dE][αMeY]LLEGGPSS[Aib]EPPPE-NH2)	0.0346	0.354			1.17		7.77	30.6	150
